Consider 19 compounds from ChEMBL document CHEMBL4351011, “Design, synthesis and biological evaluations of 2-amino-4-(1-piperidine) pyridine derivatives as novel anti crizotinib-resistant ALK/ROS1 dual inhibitors” (Eur J Med Chem, 2019).

For orientation: IC50 means the concentration that inhibits the measured activity by half. Read a low IC50 as higher potency. As a reminder, the inhibition is the drop in the measured response relative to a control, in per cent.

Assay [1] deals with NCI-H3122. The assay is described as follows: cells. Particulars: Homo sapiens, NCI-H3122, 72 h; call rule not given here.
The subject of assay [2] is HCC78. The assay is described as follows: cells. Particulars: Homo sapiens, HCC78, 72 h.
Description: Antiproliferative activity against ROS1-addicted human HCC78 cells assessed as reduction in cell viability incubated for 72 hrs by MTT assay
In assay [3] the test system is A549. The assay can be described thus: cells. As to conditions: Homo sapiens, A549, 72 h.
Assay [4] deals with T1, Proto-oncogene tyrosine-protein kinase ROS (Homo sapiens, UniProt P08922).
T1 sequence (P08922 whole entry): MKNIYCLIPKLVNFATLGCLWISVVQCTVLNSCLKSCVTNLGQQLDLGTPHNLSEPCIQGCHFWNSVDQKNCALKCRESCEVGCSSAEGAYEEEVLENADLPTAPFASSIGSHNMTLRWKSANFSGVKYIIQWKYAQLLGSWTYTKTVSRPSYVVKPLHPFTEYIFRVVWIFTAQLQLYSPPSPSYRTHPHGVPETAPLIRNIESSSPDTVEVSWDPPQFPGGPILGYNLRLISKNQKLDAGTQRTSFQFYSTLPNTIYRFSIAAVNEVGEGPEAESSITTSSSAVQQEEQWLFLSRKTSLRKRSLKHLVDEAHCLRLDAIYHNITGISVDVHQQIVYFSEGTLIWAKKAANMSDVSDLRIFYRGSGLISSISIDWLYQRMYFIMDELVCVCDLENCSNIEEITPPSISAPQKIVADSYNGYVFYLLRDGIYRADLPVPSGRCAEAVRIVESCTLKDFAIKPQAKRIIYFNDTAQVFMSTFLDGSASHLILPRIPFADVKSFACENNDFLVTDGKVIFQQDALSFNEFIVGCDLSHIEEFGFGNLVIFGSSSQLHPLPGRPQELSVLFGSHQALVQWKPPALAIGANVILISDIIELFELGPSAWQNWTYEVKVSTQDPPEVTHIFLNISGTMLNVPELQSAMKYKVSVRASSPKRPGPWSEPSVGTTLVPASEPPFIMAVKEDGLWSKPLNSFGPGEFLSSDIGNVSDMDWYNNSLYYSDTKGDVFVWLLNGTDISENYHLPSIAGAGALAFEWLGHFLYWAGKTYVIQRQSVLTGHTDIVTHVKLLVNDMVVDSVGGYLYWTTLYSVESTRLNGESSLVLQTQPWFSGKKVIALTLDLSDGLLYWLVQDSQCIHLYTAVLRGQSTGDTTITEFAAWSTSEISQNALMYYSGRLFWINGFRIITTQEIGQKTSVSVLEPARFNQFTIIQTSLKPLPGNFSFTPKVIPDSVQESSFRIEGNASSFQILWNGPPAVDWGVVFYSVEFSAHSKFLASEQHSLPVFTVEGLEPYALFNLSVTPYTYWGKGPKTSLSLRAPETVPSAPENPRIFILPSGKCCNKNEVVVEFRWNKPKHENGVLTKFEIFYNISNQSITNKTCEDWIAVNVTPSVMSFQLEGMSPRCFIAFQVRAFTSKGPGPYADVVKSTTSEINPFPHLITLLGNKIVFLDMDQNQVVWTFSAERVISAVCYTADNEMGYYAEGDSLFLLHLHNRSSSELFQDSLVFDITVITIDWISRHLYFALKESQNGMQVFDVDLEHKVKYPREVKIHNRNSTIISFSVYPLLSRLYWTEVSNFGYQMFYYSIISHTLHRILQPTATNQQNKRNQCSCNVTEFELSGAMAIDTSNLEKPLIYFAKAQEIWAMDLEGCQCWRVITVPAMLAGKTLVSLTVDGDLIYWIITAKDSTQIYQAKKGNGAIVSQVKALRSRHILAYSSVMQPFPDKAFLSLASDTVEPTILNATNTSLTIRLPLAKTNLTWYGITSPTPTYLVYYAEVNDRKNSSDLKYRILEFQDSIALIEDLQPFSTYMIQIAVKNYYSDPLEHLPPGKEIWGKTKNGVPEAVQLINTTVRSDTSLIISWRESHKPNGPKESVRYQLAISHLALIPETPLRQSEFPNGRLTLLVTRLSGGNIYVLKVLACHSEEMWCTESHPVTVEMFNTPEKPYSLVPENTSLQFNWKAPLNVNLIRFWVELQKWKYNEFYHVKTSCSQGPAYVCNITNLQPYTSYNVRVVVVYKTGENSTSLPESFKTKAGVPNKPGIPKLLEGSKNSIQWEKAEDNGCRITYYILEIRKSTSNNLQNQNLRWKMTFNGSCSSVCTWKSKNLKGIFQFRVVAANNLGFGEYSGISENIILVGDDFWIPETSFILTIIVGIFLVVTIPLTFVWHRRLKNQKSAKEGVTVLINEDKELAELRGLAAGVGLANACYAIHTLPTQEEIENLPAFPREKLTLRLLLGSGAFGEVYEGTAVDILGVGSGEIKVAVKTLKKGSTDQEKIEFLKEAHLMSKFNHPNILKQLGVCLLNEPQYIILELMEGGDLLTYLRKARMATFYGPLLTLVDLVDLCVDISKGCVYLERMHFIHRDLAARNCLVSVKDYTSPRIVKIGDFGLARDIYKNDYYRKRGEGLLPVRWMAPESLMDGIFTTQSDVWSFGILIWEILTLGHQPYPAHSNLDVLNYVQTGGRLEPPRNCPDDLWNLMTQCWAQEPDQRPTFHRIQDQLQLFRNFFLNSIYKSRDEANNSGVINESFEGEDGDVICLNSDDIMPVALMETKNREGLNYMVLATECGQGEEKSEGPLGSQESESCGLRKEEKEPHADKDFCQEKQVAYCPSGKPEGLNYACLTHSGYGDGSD
Assay [5] concerns the target T1, Proto-oncogene tyrosine-protein kinase ROS. This is another data set of the same source.
For assay [6], the target named is T2, ALK tyrosine kinase receptor (Homo sapiens, UniProt Q9UM73). As to conditions: at 1 µM.
Assay [7] addresses T2, ALK tyrosine kinase receptor.
Target sequence in this assay (Q9UM73 whole entry): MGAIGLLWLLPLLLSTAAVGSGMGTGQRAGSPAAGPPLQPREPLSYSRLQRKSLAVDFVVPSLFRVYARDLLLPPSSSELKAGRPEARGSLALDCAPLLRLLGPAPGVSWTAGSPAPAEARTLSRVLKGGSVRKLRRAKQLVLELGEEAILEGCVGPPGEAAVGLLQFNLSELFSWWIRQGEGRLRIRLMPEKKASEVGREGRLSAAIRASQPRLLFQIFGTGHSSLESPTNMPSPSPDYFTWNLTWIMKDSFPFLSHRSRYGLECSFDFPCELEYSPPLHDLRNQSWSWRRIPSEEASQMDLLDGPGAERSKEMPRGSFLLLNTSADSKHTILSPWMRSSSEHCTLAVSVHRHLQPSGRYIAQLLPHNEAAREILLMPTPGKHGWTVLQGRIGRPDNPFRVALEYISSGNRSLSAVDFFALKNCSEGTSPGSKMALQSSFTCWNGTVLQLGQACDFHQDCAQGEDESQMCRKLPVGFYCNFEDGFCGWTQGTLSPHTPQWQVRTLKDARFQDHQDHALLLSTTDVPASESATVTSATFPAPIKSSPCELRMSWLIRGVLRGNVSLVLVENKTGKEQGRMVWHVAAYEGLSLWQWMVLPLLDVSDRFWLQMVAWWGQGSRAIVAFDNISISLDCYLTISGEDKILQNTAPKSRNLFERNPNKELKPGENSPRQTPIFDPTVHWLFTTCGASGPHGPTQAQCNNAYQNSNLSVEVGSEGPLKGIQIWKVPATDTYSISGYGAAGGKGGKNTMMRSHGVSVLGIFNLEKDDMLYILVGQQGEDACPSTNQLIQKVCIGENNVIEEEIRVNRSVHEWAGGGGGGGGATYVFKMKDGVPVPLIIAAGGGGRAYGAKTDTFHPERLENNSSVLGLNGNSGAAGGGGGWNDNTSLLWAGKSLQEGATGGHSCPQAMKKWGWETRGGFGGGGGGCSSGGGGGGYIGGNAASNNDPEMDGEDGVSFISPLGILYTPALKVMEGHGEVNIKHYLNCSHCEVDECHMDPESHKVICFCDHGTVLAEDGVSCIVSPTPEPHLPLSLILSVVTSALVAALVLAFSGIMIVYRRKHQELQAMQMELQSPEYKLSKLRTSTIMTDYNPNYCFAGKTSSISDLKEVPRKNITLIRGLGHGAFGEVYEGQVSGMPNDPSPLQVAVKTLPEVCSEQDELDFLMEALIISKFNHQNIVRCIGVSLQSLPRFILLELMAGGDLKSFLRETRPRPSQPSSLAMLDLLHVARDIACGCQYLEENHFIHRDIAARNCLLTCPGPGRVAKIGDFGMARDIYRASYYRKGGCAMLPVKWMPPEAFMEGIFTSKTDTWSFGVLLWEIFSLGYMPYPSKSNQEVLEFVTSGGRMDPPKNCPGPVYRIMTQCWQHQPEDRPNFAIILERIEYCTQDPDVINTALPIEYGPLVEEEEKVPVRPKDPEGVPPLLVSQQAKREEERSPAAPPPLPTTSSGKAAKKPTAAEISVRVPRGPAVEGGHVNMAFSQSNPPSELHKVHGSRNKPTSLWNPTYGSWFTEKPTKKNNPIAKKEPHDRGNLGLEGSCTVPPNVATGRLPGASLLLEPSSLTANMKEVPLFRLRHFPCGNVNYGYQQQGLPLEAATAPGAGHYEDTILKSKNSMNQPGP
In assay [8] the target is Leukocyte tyrosine kinase receptor (Homo sapiens) (UniProt P29376). The assay is described as follows: Inhibition of LTK (unknown origin) at 1 uM.
Assay [9] addresses CDK2/Cyclin A2 (Homo sapiens) (UniProt P24941+P20248). The assay is described as follows: Inhibition of CDK2/cyclinA (unknown origin) at 1 uM. Format: protein-complex assay.
Assay [10] has as its target Activated CDC42 kinase 1 (Homo sapiens) (UniProt Q07912). The assay is described as follows: Inhibition of TNK2 (unknown origin) at 1 uM.
In assay [11] the target is Tyrosine-protein kinase BTK (Homo sapiens) (UniProt Q06187). The assay is described as follows: Inhibition of BTK (unknown origin) at 1 uM.
Chain of Tyrosine-protein kinase BTK (Homo sapiens) (Q06187 whole entry): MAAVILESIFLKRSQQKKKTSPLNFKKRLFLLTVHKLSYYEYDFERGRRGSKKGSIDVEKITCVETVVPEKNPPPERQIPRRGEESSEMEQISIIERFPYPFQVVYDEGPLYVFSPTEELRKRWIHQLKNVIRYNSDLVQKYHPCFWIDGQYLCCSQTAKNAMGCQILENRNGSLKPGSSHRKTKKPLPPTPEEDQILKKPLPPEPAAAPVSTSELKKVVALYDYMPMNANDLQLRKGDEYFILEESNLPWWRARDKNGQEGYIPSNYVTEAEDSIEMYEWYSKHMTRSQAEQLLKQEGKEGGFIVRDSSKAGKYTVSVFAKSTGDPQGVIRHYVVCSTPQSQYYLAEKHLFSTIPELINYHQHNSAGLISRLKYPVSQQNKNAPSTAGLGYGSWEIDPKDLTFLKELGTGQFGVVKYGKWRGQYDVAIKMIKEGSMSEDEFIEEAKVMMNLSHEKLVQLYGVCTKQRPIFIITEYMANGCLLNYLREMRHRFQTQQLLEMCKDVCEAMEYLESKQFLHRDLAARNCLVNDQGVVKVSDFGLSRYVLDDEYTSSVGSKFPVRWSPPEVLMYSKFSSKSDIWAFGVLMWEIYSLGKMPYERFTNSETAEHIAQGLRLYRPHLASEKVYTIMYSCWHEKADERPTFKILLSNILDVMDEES
Assay [12] deals with BaF3. The assay is described as follows: cells. Particulars: Mus musculus, BaF3, 72 h.
Description: Antiproliferative activity against mouse BAF3 cells expressing CD74/ROS1 L2026M mutant assessed as reduction in cell viability incubated for 72 hrs by CCK8 assay
For assay [13], the target named is Insulin-like growth factor 1 receptor (Homo sapiens) (UniProt P08069). The assay can be described thus: Inhibition of IGF1R (unknown origin) at 1 uM.
Assay [14] has as its target Vascular endothelial growth factor receptor 2 (Homo sapiens) (UniProt P35968). The assay is described as follows: Inhibition of KDR (unknown origin) at 1 uM.
The target in assay [15] is Tyrosine-protein kinase Fes/Fps (Homo sapiens) (UniProt P07332). The assay is described as follows: Inhibition of FES (unknown origin) at 1 uM.
The test system of assay [16] is ALK tyrosine kinase receptor (Homo sapiens), Q9UM73 [C1156Y]. Particulars: at 1 µM.
The target of assay [17] is Hepatocyte growth factor receptor (Homo sapiens) (UniProt P08581). The assay is described as follows: Inhibition of MET (unknown origin) at 1 uM.
In assay [18] the test system is ALK tyrosine kinase receptor (Homo sapiens), Q9UM73 [F1174L]. Particulars: at 1 µM.
Chain of ALK tyrosine kinase receptor (Homo sapiens), Q9UM73 [F1174L] (Q9UM73 whole entry F1174L): as the sequence (Q9UM73 whole entry) above, with F1174L counted along it
Assay [19] concerns the target Serine/threonine-protein kinase Nek2 (Homo sapiens) (UniProt P51955). The assay is described as follows: Inhibition of NEK2 (unknown origin) at 1 uM.
The target of assay [20] is Tyrosine-protein kinase JAK2 (Homo sapiens) (UniProt O60674). The assay is described as follows: Inhibition of JAK2 (unknown origin) at 1 uM.
In assay [21] the target is Mitogen-activated protein kinase 9 (Homo sapiens) (UniProt P45984). The assay can be described thus: Inhibition of MAPK9 (unknown origin) at 1 uM.
Chain of Mitogen-activated protein kinase 9 (Homo sapiens) (P45984 whole entry, looked up): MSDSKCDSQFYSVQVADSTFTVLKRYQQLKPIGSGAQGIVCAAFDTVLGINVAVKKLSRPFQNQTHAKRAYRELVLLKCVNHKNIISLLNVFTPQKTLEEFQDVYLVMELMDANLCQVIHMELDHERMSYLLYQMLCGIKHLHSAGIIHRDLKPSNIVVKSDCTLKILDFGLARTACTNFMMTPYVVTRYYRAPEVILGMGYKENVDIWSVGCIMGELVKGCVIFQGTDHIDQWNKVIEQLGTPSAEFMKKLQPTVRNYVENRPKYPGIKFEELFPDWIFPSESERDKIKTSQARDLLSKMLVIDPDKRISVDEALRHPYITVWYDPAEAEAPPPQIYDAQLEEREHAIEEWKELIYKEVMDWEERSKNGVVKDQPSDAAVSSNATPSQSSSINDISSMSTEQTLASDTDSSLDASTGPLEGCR
The target in assay [22] is Tyrosine-protein kinase Fer (Homo sapiens) (UniProt P16591). The assay can be described thus: Inhibition of FER (unknown origin) at 1 uM.
In assay [23] the test system is ALK tyrosine kinase receptor (Homo sapiens), Q9UM73 [L1196M]. The assay can be described thus: Potency index, ratio of crizotinib IC50 to compound IC50 for ALK L1196M mutant (unknown origin) at 1 uM.
Chain of ALK tyrosine kinase receptor (Homo sapiens), Q9UM73 [L1196M] (Q9UM73 whole entry L1196M, looked up): as the sequence (Q9UM73 whole entry) above, with L1196M counted along it
Assay [24] concerns BaF3. The assay is described as follows: Potency index, ratio of crizotinib IC50 to compound IC50 for mouse BAF3 cells expressing CD74/ROS1 G2032R mutant incubated for 72 hrs by CCK8 assay. The class given is functional.
Assay [25] concerns the target Proto-oncogene tyrosine-protein kinase receptor Ret (Homo sapiens) (UniProt P07949). The assay can be described thus: Inhibition of RET (unknown origin) at 1 uM.
Assay [26] addresses Epidermal growth factor receptor (Homo sapiens) (UniProt P00533). The assay can be described thus: Inhibition of EGFR (unknown origin) at 1 uM.
In assay [27] the test system is ALK tyrosine kinase receptor (Homo sapiens), Q9UM73 [R1275Q]. Particulars: at 1 µM.
Assay [28] deals with ALK tyrosine kinase receptor (Homo sapiens), Q9UM73 [L1196M]. Particulars: at 1 µM.
Description: Inhibition of ALK L1196M mutant (unknown origin) at 1 uM relative to control
The test system of assay [29] is BaF3. The assay can be described thus: cells. Particulars: Mus musculus, BaF3, 72 h. The source holds these as a separate data set.
Description: Antiproliferative activity against mouse BAF3 cells expressing wild type CD74/ROS1 assessed as reduction in cell viability incubated for 72 hrs by CCK8 assay
Assay [30] addresses ALK tyrosine kinase receptor (Homo sapiens, UniProt Q9UM73, L1196M).
Description: Inhibition of ALK L1196M mutant (unknown origin) at 1 uM
Assay [31] has as its system BaF3. The assay is described as follows: cells. Particulars: Mus musculus, BaF3, 72 h. This is another data set of the same source.
Description: Antiproliferative activity against mouse BAF3 cells expressing CD74/ROS1 G2032R mutant assessed as reduction in cell viability incubated for 72 hrs by CCK8 assay

With `COc1cc(N2CCC(N3CCN(C)CC3)CC2)ccc1Nc1cc(N2CCC[C@@H](C(=O)NCc3ccc(OC(F)(F)F)cc3)C2)ccn1`, the concentration for half-maximal inhibition (IC50) in assay [1] was 8.86 µM; in [2], 10.9 µM; in assay [3], 2.79 µM; in assay [4], greater than 10 µM.
Turning to `COc1ccc(CNC(=O)[C@H]2CCCN(c3ccnc(Nc4cn(C)nc4C)c3)C2)cc1OC`, the IC50 in [1] was greater than 100 µM; in [5] it was “Not Active”; in assay [2], greater than 100 µM; in assay [3] it was greater than 100 µM.
For the compound `O=C(NCc1ccc(OC(F)(F)F)cc1)[C@H]1CCCN(c2ccnc(Nc3ncccn3)c2)C1`, the IC50 in assay [1] is 44.3 µM; in assay [5], “Not Active”; in assay [2], 36.5 µM; in assay [3], 17.2 µM.
Take `COc1ccc(CNC(=O)[C@H]2CCCN(c3ccnc(Nc4cnn(C)c4)c3)C2)cc1OC`: the IC50 is greater than 100 µM in [1], “Not Active” in assay [5], greater than 100 µM in assay [2] and greater than 100 µM in assay [3].
Regarding `COc1cc(N2CCC(N3CCOCC3)CC2)ccc1Nc1cc(N2CCC[C@H](C(=O)NCc3ccc(OC(F)(F)F)cc3)C2)ccn1`, the IC50 in assay [1] came out at 5.81 µM; in [2], 15.2 µM; in assay [3], 6.93 µM; in [4], 3.39 µM.
With `COc1cc(N2CCN(C)CC2)ccc1Nc1cc(N2CCC[C@H](C(=O)NCc3ccc(OC(F)(F)F)cc3)C2)ccn1`, the half-inhibitory concentration (IC50) in assay [1] was 7.53 µM; in [2] it was 14.9 µM; in [3], 7.79 µM; in assay [4] it was 1.08 µM.
`COc1cc(Nc2cc(N3CCC[C@H](C(=O)NCc4ccc(C)cc4)C3)ccn2)cc(OC)c1OC`: the IC50 is 27.8 µM in [1], 24.5 µM in [2], 12.7 µM in [3] and 12.1 µM in [4].
Consider `Cc1ccc(CNC(=O)[C@H]2CCCN(c3ccnc(Nc4cn(C)nc4C)c3)C2)cc1`, for which the IC50 was 40.7 µM in [1], “Not Active” in assay [5], 67.2 µM in [2] and 39.6 µM in [3].
As to `COc1ccc(CNC(=O)[C@H]2CCCN(c3ccnc(Nc4cnn(C5CCN(C)CC5)c4)c3)C2)cc1OC`, the IC50 in [1] is greater than 100 µM; in assay [5], “Not Active”; in assay [2], greater than 100 µM; in assay [3] it was greater than 100 µM.
As for `COc1cc(N2CCNCC2)ccc1Nc1cc(N2CCC[C@@H](C(=O)NCc3ccc(OC(F)(F)F)cc3)C2)ccn1`, the IC50 was determined as 10.7 µM in [1]; 25.3 µM in [2]; 5.11 µM in assay [3]; 1.21 µM in assay [4]; 0.56 µM in [7]. The inhibition in [6] was 76%.
Regarding `COc1ccc(CNC(=O)[C@H]2CCCN(c3ccnc(Nc4cnn(C5CCNCC5)c4)c3)C2)cc1OC`, the IC50 in assay [1] is 51.7 µM; in [5], “Not Active”; in assay [2], 83.7 µM; in assay [3], greater than 100 µM.
In the case of `Cc1cc(Nc2cc(N3CCC[C@@H](C(=O)NCc4ccc(OC(F)(F)F)cc4)C3)ccn2)ccc1NC1CCN(C)CC1`, the IC50 was 10.4 µM in assay [1], 13.5 µM in [2], 6.51 µM in assay [3] and greater than 10 µM in assay [4].
On to `COc1cc(N2CCC(N3CCOCC3)CC2)ccc1Nc1cc(N2CCC[C@@H](C(=O)NCc3ccc(OC(F)(F)F)cc3)C2)ccn1`, for which the IC50 in assay [1] was 8.3 µM; in [2], 13.7 µM; in [3], 6.45 µM; in [4] it was greater than 10 µM.
In the case of `Cc1nn(C)cc1Nc1cc(N2CCC[C@@H](C(=O)NCc3ccc(OC(F)(F)F)cc3)C2)ccn1`, the IC50 in assay [1] is 13.9 µM; in assay [2], 80.7 µM; in assay [3] it was 9.74 µM; in [4], 7.3 µM.
For `Cc1cc(Nc2cc(N3CCC[C@H](C(=O)NCc4ccc(OC(F)(F)F)cc4)C3)ccn2)ccc1NC1CCN(C)CC1`, in that order: 5.1 µM, 7.76 µM, 7.07 µM and greater than 10 µM.
Consider `COc1cc(N2CCC(N3CCN(C)CC3)CC2)ccc1Nc1cc(N2CCC[C@H](C(=O)NCc3ccc(OC(F)(F)F)cc3)C2)ccn1`, for which the IC50 is 16.6 µM in [1], 11 µM in assay [2], 6.6 µM in [3] and 2.26 µM in assay [4].
For `Cc1nn(C)cc1Nc1cc(N2CCC[C@H](C(=O)NCc3ccc(OC(F)(F)F)cc3)C2)ccn1` the same measures were 20.2 µM, 34.6 µM, 11.3 µM and 1.26 µM.
Take `COc1cc(N2CCNCC2)ccc1Nc1cc(N2CCC[C@H](C(=O)NCc3ccc(OC(F)(F)F)cc3)C2)ccn1`: the inhibition in assay [8] is 91%; in [9], 1%; in [10], -3%; in assay [11], -5%; in assay [6], 95%; in [13], 3%. Further, the inhibition in assay [14] was -3%; in [15], -1%; in [16], 100%; in assay [17] it was 6%; in [18], 80%; in [19] it was -7%. Moreover, the inhibition in assay [20] was 11%; in assay [21], -10%; in assay [22], 6%; in [25] it was -3%; in assay [26], 11%; in assay [27], 92%. Moreover, the inhibition in assay [28] was 93%. Further, the IC50 in [1] was 6.45 µM; in assay [12] it was 0.234 µM; in assay [2] it was 10.7 µM; in assay [3], 3.64 µM; in [4], 0.53 µM; in [29] it was 0.138 µM. Further, the IC50 in [30] came to 0.0413 µM; in assay [7], 0.174 µM; in [31], 0.105 µM. Also, the Ratio IC50 worked out at 2 in [23] and 6 in [24].
In the case of `CN1CCC(n2cc(Nc3cc(N4CCC[C@H](C(=O)NCc5ccc(C#N)cc5)C4)ccn3)cn2)CC1`, the IC50 in [1] was 15.1 µM; in [5], “Not Active”; in assay [2] it was 87.6 µM; in assay [3], 53.8 µM.
